The source of these data is ChEMBL document CHEMBL5244223, “l,8-Naphthalimide based DNA intercalators and anticancer agents. A systematic review from 2007 to 2017” (Eur J Med Chem, 2018).

In brackets after ≈: the same amount, converted by molar mass.

Test [1] deals with HepG2. In words: Antiproliferative activity against human HepG2 cells assessed as inhibition of cell proliferation incubated for 48 hrs by MTT assay. It is filed as functional, cell-based. The conditions noted are these: HepG2, 48 h.
Test [2] deals with K562. In words: Antiproliferative activity against human K562 cells assessed as inhibition of cell proliferation incubated for 48 hrs by MTT assay. It counts as functional, cell-based. The conditions noted are these: K562, 48 h.
Test [3] concerns MDA-MB-231. In words: Antiproliferative activity against human MDA-MB-231 cells assessed as inhibition of cell proliferation incubated for 48 hrs by MTT assay. It counts as functional, cell-based. The conditions noted are these: MDA-MB-231, 48 h.
Test [4] concerns HCT-116. The experiment in a line: Antiproliferative activity against human HCT-116 cells assessed as inhibition of cell proliferation incubated for 48 hrs by MTT assay. It counts as functional, cell-based. As to conditions: HCT-116, 48 h.
Test [5] concerns Mus musculus. The experiment in a line: Antitumor activity against mouse H22 cells xenografted in Kunming mouse assessed as decrease in tumor growth at 1 mg/kg administered as single injection via caudal vein for 7 consecutive days. It is filed as functional. Also on record: scale not given: the % may be the effect or the level left.
In test [6] the test system is P388. In words: Antiproliferative activity against mouse P388 cells assessed as inhibition of cell proliferation by MTT assay. It is filed as functional, cell-based.
In test [7] the test system is A-375. The experiment in a line: Antiproliferative activity against human A-375 cells assessed as inhibition of cell proliferation by MTT assay. It counts as functional, cell-based.
Test [8] has as its system HeLa. In words: Antiproliferative activity against human HeLa cells assessed as inhibition of cell proliferation by MTT assay. It counts as functional, cell-based.
For test [9], the system named is Jurkat. The experiment in a line: Antiproliferative activity against human Jurkat cells assessed as inhibition of cell proliferation incubated for 72 hrs by MTT assay. It is filed as functional, cell-based.
Test [10] has as its system Calf thymus DNA. In words: Binding affinity to calf thymus DNA assessed as apparent binding constant by fluorescence based EtBr-displacement assay. It counts as nucleic-acid assay. As to conditions: Bos taurus.
In test [11] the test system is A549. In words: Antiproliferative activity against human A549 cells assessed as inhibition of cell proliferation incubated for 72 hrs by MTT assay. It counts as functional, cell-based. As to conditions: A549, 72 h.
The subject of test [12] is MCF7. The experiment in a line: Antiproliferative activity against human MCF7 cells assessed as inhibition of cell proliferation incubated for 72 hrs by MTT assay. As to conditions: MCF7, 72 h. It is filed as functional, cell-based.
In test [13] the test system is Staphylococcus aureus. The experiment in a line: Antibacterial activity against Staphylococcus aureus MTCC 96 assessed as inhibition of bacterial growth by agar well diffusion assay. It counts as functional.
Test [14] concerns Calf thymus DNA. In words: Binding affinity to calf thymus DNA assessed as DNA intercalation by measuring change in melting temperature by thermal denaturation assay. The conditions noted are these: Bos taurus. It counts as nucleic-acid assay.
Test [15] relates to Escherichia coli. The experiment in a line: Antibacterial activity against Escherichia coli MTCC 443 assessed as inhibition of bacterial growth by agar well diffusion assay. It is filed as functional.
Test [16] deals with Pseudomonas aeruginosa. The experiment in a line: Antibacterial activity against Pseudomonas aeruginosa MTCC 741 assessed as inhibition of bacterial growth by agar well diffusion assay. It counts as functional.
Test [17] relates to COLO 205. The experiment in a line: Cytotoxicity against human COLO 205 cells assessed as inhibition of cell growth incubated for 72 hrs by SRB assay. It is filed as functional, cell-based. As to conditions: COLO 205, 72 h, pooled result: one value given for 7 cell lines, strains, targets or settings.
In test [18] the test system is Staphylococcus epidermidis. In words: Antibacterial activity against Staphylococcus epidermidis MTCC 435 assessed as inhibition of bacterial growth by agar well diffusion assay. It is filed as functional.
In test [19] the test system is Calf thymus DNA. In words: Binding affinity to calf thymus DNA assessed as binding constant by fluorescence based EtBr-displacement based UV-Vis spectroscopic analysis. As to conditions: Bos taurus. It is filed as nucleic-acid assay.
The species entered for test [20] is Homo sapiens. In words: Binding affinity to double stranded [poly(dA-dT)2] DNA (unknown origin) assessed as change in melting temperature by thermal denaturation based spectrometer analysis.
Test [21] is filed under the species Homo sapiens. The experiment in a line: Binding affinity to double stranded [poly(dA-dT)2] DNA (unknown origin) assessed as change in melting temperature in presence of NaCl by thermal denaturation based spectrometer analysis.
Test [22] concerns K562. The experiment in a line: Cytotoxicity against human K562 cells assessed as inhibition of cell growth incubated for 48 hrs by MTT assay. It is filed as functional, cell-based. As to conditions: K562, 48 h.
Test [23] has as its system SMMC-7721. In words: Cytotoxicity against human SMMC-7721 cells assessed as inhibition of cell growth incubated for 48 hrs by MTT assay. It is filed as functional, cell-based. As to conditions: SMMC-7721, 48 h.
Test [24] has as its system HCT-116. In words: Cytotoxicity against human HCT-116 cells assessed as inhibition of cell growth incubated for 48 hrs by MTT assay. The conditions noted are these: HCT-116, 48 h. It counts as functional, cell-based.
Test [25] has as its system Clupea harengus. The experiment in a line: Binding affinity to herring DNA assessed as binding constant incubated for 30 mins by fluorescence based EtBr-UV absorption spectral analysis.
The test system of test [26] is Staphylococcus aureus. In words: Antibacterial activity against Staphylococcus aureus MTCC-737 assessed as inhibition of bacterial growth incubated for 24 hrs by two-fold serial dilution assay. It is filed as functional.
Test [27] concerns Calf thymus DNA. The experiment in a line: Binding affinity to calf thymus DNA assessed as binding constant incubated for 30 mins by fluorescence based EtBr-displacement assay. The conditions noted are these: Bos taurus. It is filed as nucleic-acid assay.
For test [28], the system named is Escherichia coli. The experiment in a line: Antibacterial activity against Escherichia coli MTCC-739 assessed as inhibition of bacterial growth incubated for 24 hrs by two-fold serial dilution assay. It is filed as functional.
Test [29] deals with Salmonella typhimurium. In words: Antibacterial activity against Salmonella typhimurium MTCC-98 assessed as inhibition of bacterial growth incubated for 24 hrs by two-fold serial dilution assay. It is filed as functional, Salmonella enterica subsp. enterica serovar Typhimurium. The conditions noted are these: Salmonella enterica.

Take `Cl.Cl.Cl.Cl.NCCCNCCCCNCCCNCC(=O)NCCCN1C(=O)c2cccc3cccc(c23)C1=O`: the IC50 in test [1], in [2], in test [3] and in [4] was 2.86 µM each time. For the same compound, in test [5], the Activity is 70.92%.
`CN(C)CCNc1ccc2c3c(cccc13)C(=O)N(c1ccc(S(=O)(=O)NC(=O)c3ccc(N4CCN(CC=C(c5ccccc5)c5ccccc5)CC4)cc3)cc1)C2=O`: the IC50 in test [6], in [7] and in test [8] was 6.7 µM throughout.
Consider `O=C1c2cccc3cccc(c23)C(=O)N1CCCCCCNCc1ccccn1`, for which the results for the IC50 in [9], in test [11] and in test [12] were 5.58 µM, 5.67 µM and 5.67 µM, respectively. Besides, the Kapp in [10] was 3.1 10^6/M.
On to `O=C1c2cccc3cccc(c23)C(=O)N1c1nc(-c2cc3cc(Cl)cc(Cl)c3oc2=O)cs1`, for which the minimal inhibitory concentration (MIC) in [13], in test [15], in [16] and in [18] was 18.8 mg/L (≈ 38 µM) throughout. Moreover, in [14], the ΔTm worked out at 3.8 °C. For the same compound, in test [17], the IC50 turned out to be 0.19 µM.
For the compound `O=C1c2cccc3c([N+](=O)[O-])ccc(c23)C(=O)N1c1cccc(-c2cc[n+]3c(c2)-c2cccc[n+]2CC3)c1`, the K in test [19] is 6.5 10^6/M. The shift in melting temperature (ΔTm) turned out to be 23 °C in test [20] and 11 °C in test [21].
With `NCCCCNCCCN1C(=O)c2cccc3cccc(c23)C1=O`, the IC50 in test [22], in [23] and in [24] was 5.45 µM throughout. In addition, in test [25], the Kb was 6.06 10^3/M.
Take `COc1ccc(/C=N/N2C(=O)c3cccc4cccc(c34)C2=O)cc1OC`: the minimal inhibitory concentration (MIC) in test [26] stood at 62 mg/L (≈ 172 µM); in test [28], 31 mg/L (≈ 86 µM); in test [29], 62 mg/L (≈ 172 µM). For the same compound, in test [27], the Kb was 2 10^4/M.
